Results as given in patent US20240398831A1, “COMPOSITIONS COMPRISING SMALL MOLECULE REGULATORS OF TUMOR IMMUNITY AND METHODS OF USING SAME” (Duke University, priority 2021, published 2024).

Tested on: T cells co-cultured with BMDM
Experiment: T cells co-cultured with bone marrow-derived macrophages (BMDM) polarized to M2
Type: cell-based, mouse
Conditions: for proliferation of T cells (CFSE dilution): macrophages differentiated in NM
Experimental: In vitro bone marrow-derived macrophage differentiation. For this purpose, bone marrow cells were aseptically collected from 8-10 weeks old female C57BL/6J mice by crushing the femurs and tibias in PBS, […] and 2 mM EDTA. Cells were added to ACK buffer to lyse the red blood cells for 2 mins with intermediate vortexing. The solution was filtered through a 40 μm strainer to remove bone fragments. To differentiate bone marrow cells to macrophages the cells were plated in DMEM media (100%) or DMEM media (70%) and 30% tumor-conditioned media, supplemented with 10% heat-inactivated charcoal-stripped serum in the presence of 30 ng/mL MCSF (Cat #312-02, PeproTech). After 3 days cells were supplemented with 50% of respective fresh media. On day 6 the media was removed and replaced with fresh media. […] For polarization, cells were further treated with LIPS (100 ng/mL, Cat L2630, Sigma Aldrich) and IFNγ (20 ng/mL, Cat #315-05, PeproTech) (24 hr) for M1 polarization or IL4 (10 ng/mL, cat #214-14, PeproTech) for M2 polarization.
T cell proliferation assay and staining. CD3+ T cells were isolated from the spleens of C57BL/6J or P-mel mice with magnetic bead-based T cell isolation kit (Cat #19851, StemCell Technologies). T cells from naïve mice were stained with 5 μM CFSE (Cat #C34554, ThermoFisher Scientific) for 5 minutes in PBS+5% CFS with rapid vortexing following which the cells were washed twice with PBS. Stained T cells were then counted and plated in 96-well plates coated with anti-CD3 antibody (0.5 μg/mL, Cat #19851, ThermoFisher Scientific) anti-CD28 antibody (1 μg/mL, Cat #16-0281-86, Thermo Fisher Scientific) at desired density (250,000 T cells/50,000 CD11b or BMDM) in the presence of IL2 (50 ng/mL) (Cat #212-12, PeproTech). 72 hr after plating the cells were incubated with protein transport inhibitors brefeldin (Cat #00-4506-51, Thermo Fisher Scientific) and monensin (Cat #00-4505-51, Thermo Fisher Scientific) for 6 hr at a final concentration of 2 μM monensin and 3 μg/mL brefeldin after which they were collected and were processed for staining for flow cytometry.
Of note, no changes in the percentage of Ly6C+/Ly6G+ MDSCs in tumors between the two treatment conditions were observed (FIG. 10D). […] The addition of tumor conditioned media allows the TME to be partially mimicked where tumor derived factors influence the differentiation and polarization of macrophages. […] The polarized macrophages were subsequently co-cultured with sub-optimally activated T cells (CD3/CD28 and IL2) isolated from spleens of non-tumor bearing mice, for 72 hr following which they were treated with protein transport inhibitors (monensin and brefeldin) for 6 hr to prevent release of cytokines and chemokines.

17β-estradiol [E2]
proliferation of T cells (CFSE) (BMDM from Esr1^f/f and Esr1^f/f, LysMCre differentiated in NM, DMSO or E2): No difference
T cell proliferation (CFSE dilution) (macrophages differentiated in 30% TCM and E2): effectively suppressed
proliferation of T cells (CFSE dilution) (E2): not affected
expression of GZMB and IFNγ in T cells (macrophages differentiated in TCM, E2 1 nM vs DMSO): decreased expression
expression of IFNγ and GZMB in T cells (macrophages in normal media (NM), E2 1 nM): did not display any change

C[C@]12CC[C@@H]3c4ccc(O)cc4C[C@@H](CCCCCCCCC[S+]([O-])CCCC(F)(F)C(F)(F)F)[C@H]3[C@@H]1CC[C@@H]2O (stereo partly shown) [fulvestrant]
E2-induced suppression of T cell proliferation (macrophages differentiated in 30% TCM, E2 (1 nM)+fulvestrant (100 nM)): reversed
proliferation of T cells (CFSE dilution) (E2+fulvestrant): not affected
